This data set is described as follows: Metabolic stability in human liver microsomes assessed as intrinsic clearance per mg of protein.

For `CN(C)CCOc1ccc(/C(=C(/CCCl)c2ccccc2)c2ccccc2)cc1` [TOREMIFENE], the microsomal CLint (liver microsomes) came out at 31 µL/min/mg. Turning to `COc1ccccc1OCCNCC(O)COc1cccc2[nH]c3ccccc3c12` (stereo unspecified) [CARVEDILOL], the microsomal CLint (microsomes) amounted to 235 µL/min/mg.

`CC(=O)CC(c1ccc([N+](=O)[O-])cc1)c1c(O)c2ccccc2oc1=O` (stereo unspecified) [ACENOCOUMAROL]: the microsomal CLint (liver microsomes) was determined as 37 µL/min/mg.

With `CN(C)CCCN1c2ccccc2Sc2ccc(Cl)cc21` [CHLORPROMAZINE], the microsomal CLint (microsomes) was found to be 117 µL/min/mg. Turning to `CC(C)COCC(CN(Cc1ccccc1)c1ccccc1)N1CCCC1` (stereo unspecified) [BEPRIDIL], under “liver microsomes”, the microsomal CLint stood at 94 µL/min/mg.

For `CN(C)CCCC1(c2ccc(F)cc2)OCc2cc(C#N)ccc21` (stereo unspecified) [CITALOPRAM], the microsomal CLint (liver microsomes) came to 36 µL/min/mg. For the compound `Cc1ncc2n1-c1ccc(Cl)cc1C(c1ccccc1F)=NC2` [MIDAZOLAM], under “microsomes”, the intrinsic metabolic clearance (microsomal CLint) came to 554 µL/min/mg.

For the compound `COc1ccc(C(CN(C)C)C2(O)CCCCC2)cc1` (stereo unspecified) [VENLAFAXINE], where the note is “liver microsomes”, the microsomal CLint was 59 µL/min/mg. On the same count and under the same terms, to `c1ccc(C2(c3ccccc3)CC2C2=NCCN2)cc1` (stereo unspecified) [CIFENLINE] belongs 28 µL/min/mg; to `c1ccc2c(c1)Sc1ccccc1N2CC1CN2CCC1CC2` (stereo unspecified) [MEQUITAZINE], 34 µL/min/mg. Take `CNCCCC12CCC(c3ccccc31)c1ccccc12` [MAPROTILINE]: the microsomal CLint (microsomes) amounted to 31 µL/min/mg. In the case of `CN1[C@@H]2CC[C@H]1C[C@@H](OC(=O)c1c[nH]c3ccccc13)C2` [TROPISETRON], for the setting “liver microsomes”, the microsomal CLint stood at 22 µL/min/mg. Turning to `CC(/C=C/C(=O)NO)=C\[C@@H](C)C(=O)c1ccc(N(C)C)cc1` [TRICHOSTATIN], under “liver microsomes”, the intrinsic clearance (microsomal CLint) is 107 µL/min/mg. As to `O=c1c(O)c(-c2ccc(O)cc2)oc2cc(O)cc(O)c12` [KAEMPFEROL], the microsomal CLint (microsomes) came to 269 µL/min/mg. Still for that read-out and setting: to `CNC1(c2ccccc2Cl)CCCCC1=O` (stereo unspecified) [KETAMINE] belongs 136 µL/min/mg. For `CN1CC(=O)N2[C@H](c3ccc4c(c3)OCO4)c3[nH]c4ccccc4c3C[C@@H]2C1=O`, under “liver microsomes”, the microsomal CLint turned out to be 49 µL/min/mg.

(Values after ChEMBL document CHEMBL1139373, “Metabolic soft spot identification and compound optimization in early discovery phases using MetaSite and LC-MS/MS validation” (J Med Chem, 2009).)
